“Also recorded” adds a separate entry of the source.
Assays:
[1] = test system: sterol response element (SRE); assay: SRE-luc reporter assay in HepG2 cells; assay type: cell-based, human
Description: Our phenotypic high-throughput screen (HTS) approach to identify nonlipogenic ABCA1 Inducers (NLAI) originally used counterscreening with a SREBP1c-luciferase reporter (linked to the SREBF1 gene promoter) in human hepatocarcinoma HepG2 cells ([Ben Aissa et al., 2021]). Unwanted lipogenesis is mediated by LXR agonists via direct transcriptional activation and indirectly by the effects of SREBP1c ([Schultz et al., 2000]; [Brown and Goldstein, 1997]). SREBP1c enhances transcription of genes required for synthesis of fatty acids and TG and as the dominant isoform in liver is associated most closely with lipogenesis and TG elevation ([Brown and Goldstein, 1997]). […] Binding of SREBP1c to the sterol response element (SRE) induces transcription of lipogenic genes associated with elevated TG. To better model the lipogenic axis in hepatocytes, we use HepG2 cells stably transfected with a nanoluciferase reporter downstream of a SRE promoter (SRE-luc), activation of which requires SREBP1c maturation.
HepG2 cells were cotransfected with SRE (LDLR)-NlucP SuperPiggyBac Transposon and a separate Transposase plasmid (System Biosciences). Cells were expanded for multiple passages followed by selection with puromycin (1 μg/ml). Stable cells constitutively express GFP allowed for FACS enrichment and/or cell cloning. Initially, stable pools were compared to low expressing and high expressing enriched pools. The optimal pool was selected based on assay performance (Z’) and was grown and maintained as above, with the addition of 1.0 μg/mL of puromycin biweekly.
Cells were split into flasks containing CS medium (EMEM supplemented with 10% charcoal stripped FBS (Gibco A52567-01)) and 1% P/S and grown at 37 °C /5% CO2 for 48 hr before plating. Cells were plated in 384-well, white clear tissue culture plates (Greiner 781098) and allowed to grow at 37 °C /5% CO2 for 24 hr before medium was aspirated and compound dilutions prepared in CS medium were added. Following a 24 hr incubation, the medium was aspirated, and cells were lysed/luminescence quantified using the Nano-Glo Luciferase Assay System (Promega N1130).

ABCA1 = assay: ABCA1-luc reporter assay in CCF-STTG1 astrocytoma cells; assay type: cell-based, human; details: for ABCA1 induction response/phenotype in CCF cells: normalized to T0
Description: Astrocytoma CCF-STTG1 cells, stably transfected with an ABCA1-promoter linked to a luciferase response element, provide a model for ABCA1 induction in astrocytes ([Ben Aissa et al., 2021]). […] Apparent inverse agonist activity in cell-based assays can result from ‘true’ inverse agonist recruitment of corepressors or from antagonist activity towards endogenous sterol LXR agonists. Although we use serum-stripped media, antagonism of endogenous LXR agonists cannot be ruled out.
Low passage CCF-STTG1 cells (20,000 cells/well) were seeded in 96-well plates in media containing charcoal-stripped FBS and incubated at 37 °C and 5% CO2 for 24 hr prior to a 24 hr treatment. All compounds were dissolved in DMSO, and final DMSO concentrations never exceeded 1%. After a 24 hr incubation period, add a volume of ONE-GLOEX Reagent that is equal to the volume of culture medium in each well and incubate for 3–5 min on the shaker. The luminescent activity of compounds ([…], 10-fold dilution) was examined using the ONE-GLOEX assay (Promega). […] The assays were performed in duplicates for each concentration, and the EC50 values were determined from non-linear regression analysis of the dose-response curve generated in GraphPad Prism 9.

LXR [2] = assay: Corepressor (NCOR2, SMRT2) binding to LXR, CRT, statements across isoforms; assay type: biochemical; details: monoplex CRT, absence of coactivator
LXRβ [3] = biological target: T1, LXRβ (Homo sapiens, UniProt P55055); assay: SRC-1 coactivator recruitment to LXRβ, coregulator TR-FRET (CRT); assay type: biochemical; set-up: The CRT selectivity assay incorporates GST-tagged LXR-LBD; purchased Thermo Fisher Scientific PV4660; details: for LXR isoform selectivity from SRC-1 CRT: LXRβ versus LXRα
T1 sequence (P55055 222-460 limits assumed): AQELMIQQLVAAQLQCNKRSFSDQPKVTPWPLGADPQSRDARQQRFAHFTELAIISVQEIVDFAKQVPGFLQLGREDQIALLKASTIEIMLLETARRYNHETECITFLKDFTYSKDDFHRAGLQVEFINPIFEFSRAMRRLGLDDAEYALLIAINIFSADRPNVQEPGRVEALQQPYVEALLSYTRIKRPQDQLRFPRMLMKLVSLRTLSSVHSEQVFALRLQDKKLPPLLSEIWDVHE

LXRα [4] = biological target: T2, LXRα (Homo sapiens, UniProt Q13133); assay: NCOR2 corepressor binding to LXRα, CRT; assay type: biochemical; set-up: The CRT selectivity assay incorporates GST-tagged LXR-LBD; purchased Thermo Fisher Scientific PV4657; details: for activity at 1 µM: ligand 1 µM, interpolated from concentration-response, normalized, heat map Figure 9A, read-out: NCOR2α, relative % activity at 1 μM
T2 sequence (Q13133 209-447 limits assumed): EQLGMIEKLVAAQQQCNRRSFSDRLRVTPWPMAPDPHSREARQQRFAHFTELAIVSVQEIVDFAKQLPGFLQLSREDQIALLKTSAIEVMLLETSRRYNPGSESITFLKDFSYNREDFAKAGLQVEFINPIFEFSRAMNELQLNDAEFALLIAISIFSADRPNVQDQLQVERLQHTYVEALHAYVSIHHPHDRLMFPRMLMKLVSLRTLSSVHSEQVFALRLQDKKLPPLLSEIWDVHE

LXRβ [5] = biological target: T1, LXRβ; assay: NCOR2 corepressor binding to LXRβ, CRT; assay type: biochemical; set-up: The CRT selectivity assay incorporates GST-tagged LXR-LBD; purchased Thermo Fisher Scientific PV4660; details: for activity at 1 µM: ligand 1 µM, interpolated from concentration-response, normalized, heat map Figure 9A, read-out: NCOR2β, relative % activity at 1 μM
LXRα [6] = biological target: T2, LXRα; assay: SMRT2 corepressor binding to LXRα, CRT; assay type: biochemical; set-up: The CRT selectivity assay incorporates GST-tagged LXR-LBD; purchased Thermo Fisher Scientific PV4657; details: ligand 1 µM, interpolated from concentration-response, normalized; heat map Figure 9A; read-out: SMRT2α, relative % activity at 1 μM
LXRβ [7] = biological target: T1, LXRβ; assay: SMRT2 corepressor binding to LXRβ, CRT; assay type: biochemical; set-up: The CRT selectivity assay incorporates GST-tagged LXR-LBD; purchased Thermo Fisher Scientific PV4660; details: ligand 1 µM, interpolated from concentration-response, normalized; heat map Figure 9A; read-out: SMRT2β, relative % activity at 1 μM
Hamsters = test system: Hamsters; set-up: method as in Groot et al., 2005; details: ref Groot et al., 2005; cited from earlier work
cynomolgus monkeys = test system: cynomolgus monkeys; set-up: method as in Groot et al., 2005; details: ref Groot et al., 2005; cited from earlier work
[8] = test system: Tg2576 familial Alzheimer’s disease (FAD) mice; set-up: method as in Stachel et al., 2016; details: subcutaneous, 3 weeks, 50 mg/kg/day; ref Stachel et al., 2016; cited from earlier work
monkeys = test system: monkeys; set-up: method as in Stachel et al., 2016; details: 20 mg/kg qd p.o., 2 weeks, ref Stachel et al., 2016, cited from earlier work
LXR [9] = assay: Categorization of ligands by CRT/pCRT signature; assay type: biochemical; details: response at 1 µM ligand compared with theoretical signatures
Description: With the knowledge that, in pCRT, corepressors bind to the apo-receptor; whereas coactivator binding requires a ligand-induced conformational change, we can categorize all ligands using their CRT profiles. Ligands induce three LXR conformational ensembles with CoR (destabilizing D, stabilizing S, neutral N) and only two conformations with CoA (stabilizing S, neutral N) (Figure 9 (Table 1)). In categorizing ligands based upon these CRT characteristics, labels are needed.
The category for each ligand is not always identical for LXRα vs. LXRβ. Similarly, the phenotype associated with each classification is isoform dependent. Recruitment of CoA to LXRβ by FA, WA, and PA will activate transcription; whereas, lack of recruitment by SA, HA, and RA will antagonize transcription (Figure 9 (Table 1)). Stabilization of CoA and/or destabilization of CoR bound to LXRα is a derepression mechanism leading to activation/transcription for FA, WA, and RA; whereas partial activation is expected for PA.
To determine which LXR ligands fit with these theoretical CRT signatures, concentration-response curves were interpolated to measure normalized response at 1 µM ligand concentration and plotted as a heat map (Figure 9A).

HepG2 cells = assay: Cell viability in HepG2 cells under SRE-luc conditions; assay type: cell-based, human; details: conditions of SRE-luc measurements
Description: Figure 5. Lipogenic response of HepG2 cells to treatment with liver X receptor (LXR) ligands. […] See Figure 3—figure supplement 1 for biological replicates. […] See Figure 5—figure supplement 1 for full concentration-response curves. Figure 5—figure supplement 1. Response of HepG2 cells to treatment with liver X receptor (LXR) ligands. (A–B) Lipogenic response of HepG2 cells to treatment with liver X receptor (LXR) ligands showing full concentration-response curves for biphenyl compounds shown in Figure 5E–F. (C) Cell viability in HepG2 cells under identical conditions to those used to obtain sterol response element (SRE)-luc data. [drawing 5]

LXRα [10] = biological target: T2, LXRα; assay: SRC-1 coactivator recruitment to LXRα, coregulator TR-FRET (CRT); assay type: biochemical; set-up: The CRT selectivity assay incorporates GST-tagged LXR-LBD; purchased Thermo Fisher Scientific PV4657; details: maximal response relative to T0 (100%)

Row | Structure (SMILES) | activity at 1 µM (LXRα [4]) [%] | activity at 1 µM (LXRβ [5]) [%] | activity at 1 µM (LXRα [6]) [%] | activity at 1 µM (LXRβ [7]) [%] | SRE activation response/phenotype in HepG2 [1] | ABCA1 induction response/phenotype in CCF cells (ABCA1) | Corepressor (NCOR2, SMRT2) displacement or stabilization, across LXR isoforms (LXR [2]) | LXR isoform selectivity from SRC-1 CRT (LXRβ [3]) | other results
1 | CC(C)[C@@](O)(C(=O)N1CCC(C2CCN(c3ccc(C(=O)N(C)C)c(Cl)c3)CC2)CC1)C(F)(F)F [MK9, (R)–2-chloro-4-(1'-(2-hydroxy-3-methyl-2-(trifluoromethyl)butanoyl)-[4,4'-bipiperidin]–1-yl)-N,N-dimethylbenzamide] | 95.1 | 103 | 87.9 | 87.9 | activates lipogenesis in HepG2 cells |  | less effective or ineffective in displacement of corepressors from LXRα | highly LXRβ-selective; also recorded: most selective LXRβ agonists | ABCA1 and apoE protein levels in the brain [8]: Significant increases in ABCA1 and apoE protein levels in the brain; Plasma or liver TG [8]: not accompanied by significant changes in plasma or liver TG; Liver fat content (monkeys; relative to control): no change in liver fat content; Increase in APOE and Aβ in cerebrospinal fluid (CSF) (monkeys): threefold
2 | CCOC(=O)Cn1nc(C(F)(F)F)cc1-c1ccc(-c2cccc(S(C)(=O)=O)c2)cc1 [ALX101] | 100 | 105 | 87.3 | 91.1 | partial agonist of SRE activation | full agonist towards ABCA1 induction | less effective or ineffective in displacement of corepressors from LXRα |  | 
3 | CC(C)C(O)CC[C@@H](C)[C@H]1CC[C@H]2[C@@H]3CC=C4C[C@@H](O)CC[C@]4(C)[C@H]3CC[C@]12C (stereo partly drawn) [24HC, 24-hydroxycholesterol] |  |  |  |  |  |  |  | nonselective | HepG2 cell viability/cytotoxicity (HepG2 cells): cytotoxic at higher concentrations; Efficacy profile for SRC-1 recruitment to LXRα (LXRα [10]): partial agonist; Efficacy profile for SRC-1 recruitment to LXRβ (LXRβ [3]; maximal response relative to T0 (100%)): partial agonist

The next lines start with results.

Row | activity at 1 µM (LXRα [4]) [%] | activity at 1 µM (LXRβ [5]) [%] | activity at 1 µM (LXRα [6]) [%] | activity at 1 µM (LXRβ [7]) [%] | Structure (SMILES) | SRE activation response/phenotype in HepG2 [1] | ABCA1 induction response/phenotype in CCF cells (ABCA1) | Corepressor (NCOR2, SMRT2) displacement or stabilization, across LXR isoforms (LXR [2]) | LXR isoform selectivity from SRC-1 CRT (LXRβ [3]) | other results
4 | 100 | 105 | 91.8 | 81.6 | Cc1cc(C)c(S(=O)(=O)N(Cc2ccc(-c3cccc(S(C)(=O)=O)c3)cc2)Cc2ccccc2F)c(C)c1 [BE1218] | partial agonist phenotype in both cell-based assays | partial agonist phenotype in both cell-based assays; also recorded: partial agonist response | ineffective in corepressor displacement from LXRα | most selective LXRβ agonists | Selectivity for ABCA1 induction versus SRE activation (potency correlation outliers) (ABCA1; CCF ABCA1-luc versus HepG2 SRE-luc): selectivity for ABCA1 induction
5 | 99.8 | 103 | 93.4 | 82 | C[C@H](CCOc1cccc(CC(=O)O)c1)N(Cc1cccc(C(F)(F)F)c1Cl)CC(c1ccccc1)c1ccccc1 [RGX-104] |  |  | strong agonist responses |  | Liver TG (Hamsters): significantly increased liver TG; Plasma TG, LDL-C and VLDL-C (Hamsters): dose-dependent increase; Plasma LDL, HDL and TG (cynomolgus monkeys): robust time-dependent increase in TG and LDL; Effect on NCOR2 binding to LXRα (LXRα [4]; monoplex CRT, absence of SRC1): displacement of NCOR2 from both LXR isoforms; Effect on NCOR2 binding to LXRβ (LXRβ [5]; monoplex CRT, absence of SRC1): displacement of NCOR2 from both LXR isoforms
6 | 97.7 | 97.4 | 69.9 | 84 | COc1ccc(NC2=C(c3ccccc3)C(=O)N(Cc3ccccc3)C2=O)cc1 [GSK3987] |  |  | strong agonist responses | weakly selective for LXRβ | CRT/pCRT signature category (LXR [9]): FA (full agonist (FA))
